From PMC6368365, “Didehydro-Cortistatin A Inhibits HIV-1 by Specifically Binding to the Unstructured Basic Region of Tat” (mBio, 2019)
Peptide text beside a SMILES is read from it. * marks the point of attachment. Cbz = O=C(OCc1ccccc1)*

Legend:
NL4-3 strain = assay: HIV-1 NL4-3 infection of HeLa-CD4-LTR-LacZ reporter cells, LacZ measured 72 h later; type: cell-based; settings: Human immunodeficiency virus 1, NL43; HeLa-CD4-LTR-LacZ cells infected with NL4-3, LacZ at 72 h; mean ± SD, n = 2 to 3; read-out: IC50
Source text: To understand the structure-function relationship of the dCA molecule with respect to our structural model, we synthesized and characterized the ability of 11 analogs of dCA to inhibit HIV infection (Table 2). […] We used HeLa-CD4 cells stably expressing the HIV-1 5′ LTR driving β-galactosidase production (HeLa-CD4-LTR-LacZ cells) as a reporter for the infection with isolate NL4-3. Table 2 summarizes the IC50, 50% cytotoxic concentration (CC50), and therapeutic index (TI) for each compound. The loss of dCA activity was directly associated with the positioning and the chemical environment of the azote on the F ring and the presence of oxygen in ring B. Moreover, the E-F “skeleton angle” and the distance between the A-B-C-D and F rings affected the activity by more than 50-fold (analogs 7 and 10).
The activity of Tat in HeLa-CD4-LTR-Luc and OM10.1 cells was verified by a transactivation assay as described in reference. In HeLa-CD4-LTR-LacZ cells, the assay was performed as described in reference. A detailed protocol is provided in Text S1.
Transactivation assay. In HeLa-CD4-LTR-Luc cells and OM10.1 cells. The activity of Tat was verified by a transactivation assay as previously reported (13). Briefly, HeLa-CD4-LTR-Luc cells and OM10.1 were plated at 1×10^5 and 8x10^5 cells per well of a 6-well plate respectively. The following day, recombinant Tat protein was added to the cells in culture media without serum and in the presence of 100 μM of Chloroquine. Five hours later, serum was added at 5 % to the culture media. Cells were lysed 24 hrs later, protein concentration determined by Bradford assay and luciferase activity was measured for HeLa-CD4-LTR-Luc cells. Results corresponding to luciferase activity per protein concentration of each sample are shown as relative light unit (RLU). As for the OM10.1 cells, RNA was extracted using the RNA extraction kit (Qiagen) and DNA contamination was removed using Turbo-DNAse kit (Ambion). First-strand cDNA was synthesized using SuperscriptIII^TM first-strand cDNA kit (Invitrogen) and random hexamers as first-strand primers. qRT-PCR was performed with an aliquot of cDNA as template, using LightCycler? 480 SYBR Green I Master in a 20 µL reaction according to the manufacturer’s instructions. The mRNAs from each sample were used as negative control. Primer sequences for GAPDH (13) and all viral mRNAs as previously described (59). In HeLa-CD4-LTR-LacZ cells. It was performed as previously described (10). Briefly, cells were plated at 1×10^4 cells per well of a 96-well plate. Twenty-four hrs later HIV-1 NL4-3 strain was added in the presence of testing compound or DMSO. Seventy-two hrs post infection, cells were disrupted in lysis buffer (60 mM Na2HPO4, 40 mM NaH2PO4, 10 mM KCl, 10 mM MgSO4, 2.5 mM EDTA, 50 mM ß-mercaptoethanol, 0.125 % Nonidet P-40) and a quantitative chlorophenol red-ß-D-galactopyranoside (CPRG)-based (Boehringer Mannheim) assay was performed. The cell extracts were incubated in a reaction buffer (0.9 M phosphate buffer [pH 7.4], 9 mM MgCl2, 11 mM ß-mercaptoethanol, 7 mM CPRG) until a red color developed and measured with an LP400 (Becton Dickinson) plate reader at 572 nm.

[1] = MTT viability assay, 72 h; type: cell-based; settings: human, HeLa-CD4-LTR-LacZ cells, mean ± SD, n = 2 to 3
Description: The assay was performed with MTT [3-(4,5-dimethyl-2-thiazolyl)-2,5-diphenyl-2H-tetrazolium bromide] as described in reference.

[2] = system: human umbilical vein endothelial cells (HUVECs); set-up: method as in PMID 16522087, PMID 17765550, PMID 26416749; settings: read-out: EC50, antiproliferative; cited from earlier work
[3] = system: CA-sensitive AML cell lines; set-up: method as in PMID 16522087, PMID 17765550, PMID 26416749; settings: read-out: IC50, antileukemic activity; cited from earlier work
Pep B-TAR interaction = molecular target: T1, Pep B-TAR interaction (Human immunodeficiency virus type 1 group M subtype B, UniProt P20879); assay: EMSA of Tat's basic peptide (Pep B) with TAR; type: biochemical, HIV-1; settings: Tat basic peptide residues 45 to 59
T1 construct: Pep B is a peptide encompassing the basic domain of HIV Tat (^45ISYGRKKRRQRRRAP^59)
Source text: FIG 6 dCA binding to Tat disrupts Tat-TAR interaction. (A) EMSA of full-length Tat with TAR in the presence of dCA. Raltegravir (Ralt.) and deleted bulge TAR (ΔTAR) were used as negative controls. Data are representative of n = 3 independent experiments. (B) EMSA of Tat’s basic domain with TAR in the presence of increasing concentrations of dCA to Tat’s basic peptide. Pep B is a peptide encompassing the basic domain of HIV Tat (^45ISYGRKKRRQRRRAP^59). Pep C (^69LSKQPASQPRGDPTG^83) and unlabeled or cold TAR (TARc) were used as negative controls. Neomycin, which binds to Tat and TAR, was used as a positive control. Ratios of compounds (or TARc) concentrations to peptide are shown. Data are representative of n = 3 independent experiments. […] Shown are ITC results from binding of dCA (left) or Tat peptide (right) to TAR at 25°C. […] For the lower plots, results were converted to molar heats and plotted against the molar ratio of dCA or peptide to RNA. Data are representative of n = 2 independent experiments. (D) Tat-TAR interaction blocked by dCA in HeLa-CD4-LTR-Luc cells in vivo. Cells transfected with Tat or Tat Mut (arginine residues mutated to alanine in Tat’s basic domain) were incubated with DMSO or the indicated compounds (25 nM). Forty-eight hours later, cells were either lysed to determine the luciferase activity or cross-linked for ChIP assays. Luciferase activity was determined relative to protein concentration (Bradford assay) (Fig. S9A). Western blotting was performed to verify the amount of Tat under each condition (Fig. S9B). ChIP of Tat was followed by qRT-PCR of TAR DNA. The results are presented as percentage of input. The mean ± SEM is represented. Data are representative of n = 3 independent experiments. Statistical significance was determined using one-way ANOVA with post hoc Tukey’s test with 3 technical replicates. ns, not significant; ***, P < 0.0001.
We also performed the same experiment with a peptide encompassing the basic domain of Tat (Pep B; residues 45 to 59) and dCA.
EMSA With full-length Tat: similar protocol was performed as in Das et al. (60). […]

intracellular Tat = molecular target: T2, intracellular Tat (Human immunodeficiency virus type 1 group M subtype B, UniProt P69697); assay: Steady state of recombinant Tat in HeLa-CD4-LTR-Luc cells (Western blot); type: cell-based, HIV-1; settings: 6 hours with compound, MG132 10 μM
T2 construct: pTatC6H-1 (NIH AIDS Reagent Program) plasmid encoding C-terminal 6xHistidine Tat1-86 (HXB3, subtype B); made in house; host or cells: E. coli BL21 (plasmid pTatC6H-1, NIH AIDS Reagent Program)
T2 sequence (P69697 whole entry): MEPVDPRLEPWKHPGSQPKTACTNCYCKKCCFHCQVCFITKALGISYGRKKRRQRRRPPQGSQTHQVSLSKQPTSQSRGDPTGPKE
Description: FIG 5 dCA stabilizes Tat structure. (A) Trp fluorescence assays. (Left) Schematic of the assay. (Center) DMSO, dCA (7.5× Tat concentration) or raltegravir (Ralt.; 7.5× Tat concentration) was incubated with Tat. The fluorescence of the Trp^11 of Tat protein was measured at the indicated wavelengths. Acrylamide (250 mM) was used as a quenching control of Tat fluorescence. (Right) Peak absorbance (λmax) versus increasing fold ratios of compounds to Tat protein. Data are representative of n = 3 independent experiments. (B) DARTS assays. Tat was incubated with DMSO or dCA, at increasing concentrations, in the presence of increasing concentrations of proteinase K (PK). […] Data are representative of n = 2 independent experiments. (C) Steady state of Tat in the presence of dCA in vivo. HeLa-CD4-LTR-Luc cells were incubated with recombinant Tat and then washed and incubated with the indicated compounds for 6 hours. […] (Left) Western blot representative of n = 4 independent experiments. MG132 was used as a positive control of Tat protection from degradation, and raltegravir was used as a negative control. (Right) Densitometry of the Tat band normalized to the actin band. Results represent the mean ± SEM from n = 4 independent experiments. Statistical significance was determined using one-way ANOVA with post hoc Tukey’s test. ns, not significant; ***, P < 0.0001; **, P < 0.001.
Next, we determined the half-life of recombinant Tat in HeLa-CD4-LTR-Luc cells in the presence of dCA (Fig. 5C). We incubated recombinant Tat with cells for 4 hours, and after several washes to remove extracellular Tat protein, we incubated cells with DMSO, dCA, or raltegravir for an additional 6 hours. Western blotting with anti-His antibody was performed to reveal intracellular Tat. […]
Half-life of Tat in vivo. […] Total protein concentration was assessed by Bradford assay and Tat protein in each condition determined by western blot with an anti-His antibody at 1:1500 dilution (Thermofisher). […]

CN(C)C1CC23CCC4(O2)C(=CCC2(C)C(c5ccc6cnncc6c5)=CCC24)C=C3C(O)C1O (centres unmarked) [# 5]
IC50 (NL4-3 strain): 141 nM | CC50 at 72 h [1]: 16400 nM

CC(=O)N(C)C1CC23CCC4(O2)C(=CCC2(C)C(c5ccc6ccncc6c5)=CCC24)C=C3C(O)C1O (centres unmarked) [# 3]
IC50 (NL4-3 strain): 37 ± 5.8 nM | CC50 at 72 h [1]: 5600 nM

CN(C)[C@H]1C[C@@]23CC[C@@]4(O2)C(=CC[C@]2(C)[C@@H](c5ccc6ccncc6c5)CC[C@H]24)C=C3[C@@H](O)[C@@H]1O [CA, cortistatin A]
EC50 [2]: 350 nM | IC50 [3]: ~10 nM

neomycin
inhibition of Pep B-TAR interaction (EMSA) (Pep B-TAR interaction): inhibited the interaction of Pep B with TAR

CC(C)C[C@@H](C=O)NC(=O)[C@H](CC(C)C)NC(=O)[C@H](CC(C)C)NC(=O)OCc1ccccc1 [MG132] (Cbz-Leu-Leu-Leu-aldehyde)
percentage of remaining Tat (intracellular Tat): 40%

CN(C)C1CC23CCC4(O2)C(=CCC2(C)C(c5ccc6ccncc6c5)C(=O)CC42)C=C3C(O)C1O (centres unmarked) [# 9]
IC50 (NL4-3 strain): 0.5 ± 0.1 nM | CC50 at 72 h [1]: > 50000 nM

Cc1n[nH]c2cc(C3=CCC4C3(C)CC=C3C=C5C(O)C(O)C(N(C)C)CC56CCC34O6)ccc12 (centres unmarked) [# 6]
IC50 (NL4-3 strain): 67.5 ± 6.8 nM | CC50 at 72 h [1]: 12100 ± 800 nM

CC12CC=C3C=C4C(O)C(O)C(N)CC45CCC3(O5)C1CC=C2c1ccc2ccncc2c1 (centres unmarked) [# 4]
IC50 (NL4-3 strain): 4 ± 0.5 nM | CC50 at 72 h [1]: 23100 ± 300 nM
